# According to patent US10450314B2, “Pteridine derivatives as modulators of ROR gamma” (Boehringer Ingelheim International GmbH, priority 2015, dated 2019):
# What was measured:
# RORγ = target: T1, RORγ (Homo sapiens, UniProt P51449); assay: RORγ Reporter Gene Assay (RGA), luciferase transactivation in transiently transfected HEK 293 cells; type: cell-based; settings: HEK 293 cells cotransfected with pGL4.3 luc2P/GAL4UAS and pBIND Gal4DBD hRORC LBD; 20-24 h incubation
# T1 construct: expressed in transfected cells; host or cells: HEK 293 cells, transiently cotransfected with pGL4.3 luc2P/GAL4UAS/Hygro reporter
# T1 sequence (P51449 269-508 limits assumed): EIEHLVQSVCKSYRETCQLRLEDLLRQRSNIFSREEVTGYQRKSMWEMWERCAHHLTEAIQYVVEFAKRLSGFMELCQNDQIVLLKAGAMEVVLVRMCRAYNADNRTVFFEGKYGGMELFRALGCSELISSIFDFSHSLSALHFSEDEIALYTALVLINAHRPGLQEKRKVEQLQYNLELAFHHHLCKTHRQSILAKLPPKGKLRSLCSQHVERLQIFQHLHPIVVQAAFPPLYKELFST
# Procedure: Reporter Gene Assay (RGA)
# A nuclear receptor transactivation assay is performed to quantitate the ability of test compounds to inhibit RORγ transactivation of a luciferase reporter. A similar assay is described in: Khan et al., Bioorganic & Medicinal Chemistry Letters 23 (2013), 532-536. The system uses transiently transfected HEK 293 cells cotransfected with two plasmids (pGL4.3, luc2P/GAL4UAS/Hygro, and pBIND, Gal4DBD hRORC LBD1-3). The positive control is co-transiently transfected with both plasmids, and the negative control contains the pGL4.3 promoter sequence. Assays are assembled in 384 well plates where transiently transfected cells and test compound at varying concentrations are incubated for 20-24 h. The next day, assays plates are taken out and equilibrated at RT for 20-30 minutes. Bright-Glo™ Luciferase Assay System is used to detect Luciferase production. After addition of Bright GLO detection reagent, the plates are incubated at RT for 20 minutes. The plates are read on an Envision plate reader to measure luminescence signal. The RLU signal is converted to POC relative to control and blank wells.
# Compound Dilution Buffer:
# Bright Glo Luciferase Assay System: Promega #E2620
# Thaw lysis buffer provided in kit, add 100 mL lysis buffer to substrate powder.
# [1] = Human liver microsome (HLM) metabolic stability assay; type: in vitro ADME; settings: human liver microsomes, 1 uM compound, 37° C., 60 min; % hepatic blood flow
# Procedure: Assessment of Metabolic Stability
# The 5 time point, high-throughput human liver microsome (HLM) metabolic stability assay is designed to determine in vitro compound metabolism. Compounds are incubated with HLMs at a concentration of 1 uM, at 37° C., for a total of 60 min. The percent of compound remaining at 5, 15, 30, and 60 min is used to calculate the t1/2 (min), CLint (mL/min/kg), CLh (mL/min/kg), and % Qh. The assay is based on a 96-well format and can accommodate up to 92 compounds per plate (n=1).
# Using the 96-well multi-channel head, the Biomek FX, equipped with a Peltier heating block/shaker, is programmed to accomplish the following steps: • 1. Pipette 175 uL of 1.15 mg/mL microsomes into each of the 96 conical inserts (Analytical Sales and Products, catalog number 96PL05) that fit into the plate of the Peltier heating block/shaker (the incubation plate) • 2. Add 5 uL of compounds from the assay plate to the microsomes and shake the mixture at 600 rpm at 42.1° C. for 10 min (a setting of 42.1° C. on the Peltier is required for the samples to incubate at 37° C.) • 3. After 10 min, prompt the user to add the NADPH plate to the deck and add 20 uL from the NADPH plate to the incubation plate to start the reaction • 4. Add 215 uL of 100%, cold acetonitrile containing an internal standard(s) to a 0 minute, 5 minute, 15 minute, 30 minute, and 60 minute “quench” plate • 5. At 0 min, 5 min, 15 min, 30 min, and 60 min into the incubation, aspirate 12 uL from the incubation mixture and add it to the quench solution to stop the reaction • 6. Add 185 uL HPLC grade water to each well of the 0, 5, 15, 30 and 60 minute quench plates to dilute compounds to the appropriate concentration for the mass spectrometer
# After all time points are collected, the quench plates are sealed with 96-well pierceable plate mats or heat sealing foil and centrifuged at 3000 rpm for 15 min to pellet the microsomes.
# The plates are analyzed using LC/MS/MS with electron spray ionization (ESI) and the previously determined MRM transitions. The LC method includes the following parameters:
# Using an Excel template in Activitybase, the peak areas corresponding to 5, 15, 30 and 60 min are compared to the peak area at 0 min to calculate the percent of remaining compound using the following equation:
# Percent compound remaining=(AUC at Time t min/AUC at Time 0 min)×100 where t=0, 5, 15, 30 or 60 min.
# Time (min) is plotted against the natural logarithm (Ln) of the percent compound remaining to determine the slope. The slope is used to calculate t1/2 (min) using the equation, t1/2=0.693/slope.
# Clint, Intrinsic Clearance
IC50 (RORγ) [nM],HLM (% Qh) [1] [% Qh],SMILES
170,<24,"CCS(=N)(=O)c1ccc(CNc2nc3c(C)nc(-c4c(C)ncnc4C4CC4)nc3n([C@@H](C)C(F)(F)F)c2=O)cc1 (single isomer, unassigned) [Example 34b]"
165,62,COc1ncnc(C2CC2)c1-c1nc(C)c2nc(NCc3ccc(S(C)(=O)=O)nc3)c(=O)n([C@@H](C)C(F)(F)F)c2n1 [Example 19]
100,<24,CC[C@H](C)n1c(=O)c(NCc2ccc(S(=O)(=O)CC)nc2)nc2c(C)nc(-c3c(OC)ncnc3C3CC3)nc21 [Example 63]
80,<24,CC[C@H](C)n1c(=O)c(NCc2ccc(S(=O)(=O)CC)cn2)nc2c(C)nc(-c3c(C)ncnc3C3CC3)nc21 [Example 60]
155,<24,CC[C@@H](C)n1c(=O)c(NCc2ccc(S(C)(=O)=O)cn2)nc2c(C)nc(-c3c(C)ncnc3C3CC3)nc21 [Example 73]
130,<24,CCS(=O)(=O)c1ccc(CNc2nc3c(C)nc(-c4c(C)ncnc4C4CC4)nc3n([C@@H](C)C(F)(F)F)c2=O)nc1 [Example 79]
1900,<24,CC[C@@H](C)n1c(=O)c(NCc2ccc(S(=O)(=O)CC)cn2)nc2c(OC)nc(-c3c(C)ncnc3C3CC3)nc21 [Example 21]
140,<24,CCS(=O)(=O)c1cnc(CNc2nc3c(C)nc(-c4c(OC)ncnc4C4CC4)nc3n([C@@H](C)C(F)(F)F)c2=O)nc1 [Example 22]
170,25,"CC[C@@H](C)n1c(=O)c(NCc2ccc(S(=N)(=O)CC)cc2)nc2c(C)nc(-c3c(C)ncnc3C3CC3)nc21 (single isomer, unassigned) [Example 26b]"
77,<24,CCS(=O)(=O)c1ccc(CNc2nc3c(C)nc(-c4c(C)ncnc4C4CC4)nc3n([C@@H](C)C3CC3)c2=O)cn1 [Example 74]
275,<24,CCS(=O)(=O)c1ccc(CNc2nc3c(C)nc(-c4c(OC)ncnc4C4CC4)nc3n(CC(C)C)c2=O)cn1 [Example 78]
280,<24,Cc1ncnc(C2CC2)c1-c1nc(C)c2nc(NCc3ccc(S(N)(=O)=O)cn3)c(=O)n([C@@H](C)C(F)(F)F)c2n1 [Example 96]
185,<24,Cc1ncnc(C2CC2)c1-c1nc(C)c2nc(NCc3ccc(S(N)(=O)=O)cn3)c(=O)n([C@@H](C)C3CC3)c2n1 [Example 61]
75,<24,COc1ncnc(C2CC2)c1-c1nc(C)c2nc(NCc3ccc(S(C)(=O)=O)nc3)c(=O)n([C@@H](C)C3CC3)c2n1 [Example 8]
87,<24,CCS(=O)(=O)c1cnc(CNc2nc3c(C)nc(-c4c(C)ncnc4C4CC4)nc3n([C@@H](C)C3CC3)c2=O)nc1 [Example 6]
97,27,CCS(=O)(=O)c1cnc(CNc2nc3c(C)nc(-c4c(OC)ncnc4C4CC4)nc3n([C@@H](C)C3CC3)c2=O)nc1 [Example 10]
71,<24,CC[C@H](C)n1c(=O)c(NCc2ccc(S(=O)(=O)CC)cn2)nc2c(C)nc(-c3c(OC)ncnc3C3CC3)nc21 [Example 58]
120,69,CC[C@@H](C)n1c(=O)c(NCC2CCN(S(=O)(=O)CC)CC2)nc2c(C)nc(-c3c(C)ncnc3C3CC3)nc21 [Example 24]
270,<24,"CCS(=N)(=O)c1ccc(CNc2nc3c(C)nc(-c4c(C)ncnc4C4CC4)nc3n([C@@H](C)C3CC3)c2=O)nc1 (single isomer, unassigned) [Example 42a]"
1050,66,CC[C@@H](C)n1c(=O)c(NCc2ccc(S(=O)(=O)CC)cn2)nc2c(COC(C)=O)nc(-c3c(C)ncnc3C3CC3)nc21 [Example 46]
